Source: patent US20260184710A1, “CASITAS B-LINEAGE LYMPHOMA PROTOONCOGENE B (CBL-B) DEGRADING COMPOUNDS AND ASSOCIATED METHODS OF USE” (Arvinas Operations, Inc., priority 2022, published 2026)

Biological target: T1, Cbl-b (Homo sapiens, UniProt Q13191)
T1 construct: Cbl-b-HiBit KI Jurkat Cells were purchased from Promega; host or cells: Cbl-b-HiBiT knock-in Jurkat cells
Test: Cbl-b Degradation Method B (Nano-Glo HiBiT lytic detection)
Assay type: cell-based
Conditions: Cbl-b-HiBit KI Jurkat Cells, incubated at least 6-24 hours; for DC50: half maximal degradation, read-out: Cbl-b Degredation Method B IC50; for Dmax: maximum degradation observed, read-out: Cbl-b Degredation Method B Dmax (%)
How it was run: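 Cbl-b-HiBiT knock-in Jurkat cells (20,000/well) were treated after ~24 h plating with an 11-point 1:3 series for 6-24 h at 37° C. Remaining Cbl-b measured by Nano-Glo HiBiT lytic luminescence. DC50 and Dmax expressed as % of control.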

T1 sequence (Q13191 whole entry): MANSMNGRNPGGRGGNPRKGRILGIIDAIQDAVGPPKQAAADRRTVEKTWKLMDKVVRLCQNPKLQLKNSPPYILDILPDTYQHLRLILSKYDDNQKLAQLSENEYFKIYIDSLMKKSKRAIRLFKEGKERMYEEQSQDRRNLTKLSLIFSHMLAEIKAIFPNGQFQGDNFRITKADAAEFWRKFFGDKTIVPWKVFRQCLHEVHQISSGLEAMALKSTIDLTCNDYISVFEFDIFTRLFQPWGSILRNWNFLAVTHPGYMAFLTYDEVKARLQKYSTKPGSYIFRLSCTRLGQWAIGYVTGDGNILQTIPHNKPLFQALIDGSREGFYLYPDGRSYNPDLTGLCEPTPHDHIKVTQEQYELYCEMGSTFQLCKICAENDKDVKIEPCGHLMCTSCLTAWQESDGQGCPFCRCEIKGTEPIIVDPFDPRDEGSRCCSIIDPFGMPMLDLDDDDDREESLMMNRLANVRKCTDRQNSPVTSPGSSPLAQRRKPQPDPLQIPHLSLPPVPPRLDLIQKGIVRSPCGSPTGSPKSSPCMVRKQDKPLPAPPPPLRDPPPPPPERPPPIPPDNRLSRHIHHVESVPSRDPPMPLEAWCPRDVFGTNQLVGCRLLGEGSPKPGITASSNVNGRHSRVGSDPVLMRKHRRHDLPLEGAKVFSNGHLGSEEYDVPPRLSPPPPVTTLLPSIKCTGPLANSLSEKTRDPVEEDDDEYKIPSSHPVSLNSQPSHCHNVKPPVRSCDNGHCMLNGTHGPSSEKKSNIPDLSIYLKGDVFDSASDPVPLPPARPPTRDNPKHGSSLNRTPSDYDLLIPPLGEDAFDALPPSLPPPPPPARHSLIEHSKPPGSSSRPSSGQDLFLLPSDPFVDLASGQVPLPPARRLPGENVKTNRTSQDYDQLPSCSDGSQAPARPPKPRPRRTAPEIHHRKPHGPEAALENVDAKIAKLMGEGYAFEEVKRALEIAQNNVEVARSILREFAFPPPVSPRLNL

Row | DC50 | Dmax | Structure (SMILES)
1 | > 0.5 µM | – | CC(C)n1c(=O)n(C2CCC(=O)NC2=O)c2ccc(N3CCN(Cc4ccc(-c5cc6c(c(C(F)(F)F)c5)CN(c5cccc([C@]7(Cc8nncn8C)C[C@@H](C#N)C7)c5)C6=O)cc4)CC3)cc21 (stereo partly shown) [Example 295, (1r,3r)-3-(3-{6-[4-({4-[1-(2,6-dioxopiperidin-3-yl)-2-oxo-3-(propan-2-yl)-2,3-dihydro-1H-1,3-benzodiazol-5-yl]piperazin-1-yl}methyl)phenyl]-1-oxo-4-(trifluoromethyl)-2,3-dihydro-1H-isoindol-2-yl}phenyl)-3-[(4-methyl-4H-1,2,4-triazol-3-yl)methyl]cyclobutane-1-carbonitrile]
2 | < 0.005 µM | 35 to 70% | Cn1cnnc1C[C@]1(c2cccc(N3Cc4c(cc(CN5CCN(C[C@H]6CC[C@H](OC7CCN(c8ccc9c(ccn9C9CCC(=O)NC9=O)c8)CC7)CC6)CC5)cc4C(F)(F)F)C3=O)c2)C[C@H](C#N)C1 (stereo partly shown) [Example 226, (1r,3r)-3-[(4-methyl-4H-1,2,4-triazol-3-yl)methyl]-3-(3-{1-oxo-6-[(4-{[(1r,4r)-4-({1-[1-(2,6-dioxopiperidin-3-yl)-1H-indol-5-yl]piperidin-4-yl}oxy)cyclohexyl]methyl}piperazin-1-yl)methyl]-4-(trifluoromethyl)-2,3-dihydro-1H-isoindol-2-yl}phenyl)cyclobutane-1-carbonitrile]
3 | > 0.5 µM | – | Cn1cnnc1CC1(c2cccc(N3Cc4c(cc(CN5CCN(c6cc(N7CCN(c8ccc9c(c8)C(=O)N(C8CCC(=O)NC8=O)C9=O)CC7)ncn6)CC5)cc4C(F)(F)F)C3=O)c2)COC1 (stereo not shown) [Example 62, 2-(2,6-dioxopiperidin-3-yl)-5-{4-[6-(4-{[2-(3-{3-[(4-methyl-4H-1,2,4-triazol-3-yl)methyl]oxetan-3-yl}phenyl)-3-oxo-7-(trifluoromethyl)-2,3-dihydro-1H-isoindol-5-yl]methyl}piperazin-1-yl)pyrimidin-4-yl]piperazin-1-yl}-2,3-dihydro-1H-isoindole-1,3-dione]
4 | > 0.5 µM | – | Cn1cnnc1CC1(c2cccc(N3Cc4c(cc(CNC5CCN(c6ccc7c(c6)C(=O)N(C6CCC(=O)NC6=O)C7=O)CC5)cc4C(F)(F)F)C3=O)c2)COC1 (stereo not shown) [Example 38, 2-(2,6-dioxopiperidin-3-yl)-5-[4-({[2-(3-{3-[(4-methyl-4H-1,2,4-triazol-3-yl)methyl]oxetan-3-yl}phenyl)-3-oxo-7-(trifluoromethyl)-2,3-dihydro-1H-isoindol-5-yl]methyl}amino)piperidin-1-yl]-2,3-dihydro-1H-isoindole-1,3-dione]
5 | 0.005 to 0.05 µM | > 70% | Cc1cc(N2CCC(O[C@H]3CC[C@H](CN4CCN(Cc5cc6c(c(C(F)(F)F)c5)CN(c5cccc(C7(Cc8nncn8C)CC(C#N)C7)c5)C6=O)C(C)(C)C4)CC3)CC2)c(F)c2c1C(=O)N(C1CCC(=O)NC1=O)C2 (stereo partly shown) [Example 251, (1r**,3r**)-3-(3-{6-[(2,2-dimethyl-4-{[(1r*,4r*)-4-({1-[2-(2,6-dioxopiperidin-3-yl)-4-fluoro-7-methyl-1-oxo-2,3-dihydro-1H-isoindol-5-yl]piperidin-4-yl}oxy)cyclohexyl]methyl}piperazin-1-yl)methyl]-1-oxo-4-(trifluoromethyl)-2,3-dihydro-1H-isoindol-2-yl}phenyl)-3-[(4-methyl-4H-1,2,4-triazol-3-yl)methyl]cyclobutane-1-carbonitrile]
6 | < 0.005 µM | > 70% | Cn1cnnc1CC1(c2cccc(N3Cc4c(cc(CN5CCC[C@H](CN6CCN(C[C@H]7CC[C@@H](OC8CCN(c9ccc%10c(c9F)CN(C9CCC(=O)NC9=O)C%10=O)CC8)CC7)CC6(C)C)C5)cc4C(F)(F)F)C3=O)c2)CC1 (stereo partly drawn) [Example 264, 3-[4-fluoro-1-oxo-5-(4-{[(1r,4r)-4-[(3,3-dimethyl-4-{[(3S)-1-{[2-(3-{1-[(4-methyl-4H-1,2,4-triazol-3-yl)methyl]cyclopropyl}phenyl)-3-oxo-7-(trifluoromethyl)-2,3-dihydro-1H-isoindol-5-yl]methyl}piperidin-3-yl]methyl}piperazin-1-yl)methyl]cyclohexyl]oxy}piperidin-1-yl)-2,3-dihydro-1H-isoindol-2-yl]piperidine-2,6-dione]
7 | < 0.005 µM | > 70% | Cn1cnnc1CC1(c2cccc(N3Cc4c(cc(CN5CCN(C[C@H]6CC[C@H](OC7CCN(c8ccc9c(c8Cl)CN(C8CCC(=O)NC8=O)C9=O)CC7)CC6)CC5)cc4C(F)(F)F)C3=O)c2)COC1 (stereo partly shown) [Example 24, 3-[4-chloro-1-oxo-5-(4-{[(1r,4r)-4-[(4-{[2-(3-{3-[(4-methyl-4H-1,2,4-triazol-3-yl)methyl]oxetan-3-yl}phenyl)-3-oxo-7-(trifluoromethyl)-2,3-dihydro-1H-isoindol-5-yl]methyl}piperazin-1-yl)methyl]cyclohexyl]oxy}piperidin-1-yl)-2,3-dihydro-1H-isoindol-2-yl]piperidine-2,6-dione]
8 | > 0.5 µM | – | Cn1cnnc1CC1(c2cccc(N3Cc4c(cc(CN5CCN(CC6CCN(c7ccc(F)c(C(=O)NC8CCC(=O)NC8=O)c7)CC6)CC5)cc4C(F)(F)F)C3=O)c2)COC1 (stereo not shown) [Example 54, N-(2,6-dioxopiperidin-3-yl)-2-fluoro-5-{4-[(4-{[2-(3-{3-[(4-methyl-4H-1,2,4-triazol-3-yl)methyl]oxetan-3-yl}phenyl)-3-oxo-7-(trifluoromethyl)-2,3-dihydro-1H-isoindol-5-yl]methyl}piperazin-1-yl)methyl]piperidin-1-yl}benzamide]
9 | > 0.5 µM | – | Cn1cnnc1CC1(c2cccc(N3Cc4c(cc(CN5CCC6(CC5)CCN(c5ccc7c(c5)C(=O)N(C5CCC(=O)NC5=O)C7=O)CC6)cc4C(F)(F)F)C3=O)c2)COC1 (stereo not shown) [Example 27, 2-(2,6-dioxopiperidin-3-yl)-5-(9-{[2-(3-{3-[(4-methyl-4H-1,2,4-triazol-3-yl)methyl]oxetan-3-yl}phenyl)-3-oxo-7-(trifluoromethyl)-2,3-dihydro-1H-isoindol-5-yl]methyl}-3,9-diazaspiro[5.5]undecan-3-yl)-2,3-dihydro-1H-isoindole-1,3-dione]
10 | < 0.005 µM | < 35% | CC1c2nc(N3CCC(O[C@H]4CC[C@H](CN5CCCN(c6cc7c(c(C(F)(F)F)c6)CN(c6cccc([C@]8(Cc9nncn9C)C[C@@H](C#N)C8)c6)C7=O)CC5)CC4)CC3)ccc2C(=O)N1C1CCC(=O)NC1=O (stereo partly shown) [Example 180, (1r,3r)-3-[(4-methyl-4H-1,2,4-triazol-3-yl)methyl]-3-{3-[1-oxo-6-(4-{[(1r,4r)-4-({1-[6-(2,6-dioxopiperidin-3-yl)-7-methyl-5-oxo-5H,6H,7H-pyrrolo[3,4-b]pyridin-2-yl]piperidin-4-yl}oxy)cyclohexyl]methyl}-1,4-diazepan-1-yl)-4-(trifluoromethyl)-2,3-dihydro-1H-isoindol-2-yl]phenyl}cyclobutane-1-carbonitrile]
11 | > 0.5 µM | – | Cn1cnnc1CC1(c2cccc(N3Cc4c(cc(CN5CC6(CCN(c7ccc8c(c7)C(=O)N(C7CCC(=O)NC7=O)C8=O)CC6)C5)cc4C(F)(F)F)C3=O)c2)COC1 (stereo not shown) [Example 49, 2-(2,6-dioxopiperidin-3-yl)-5-(2-{[2-(3-{3-[(4-methyl-4H-1,2,4-triazol-3-yl)methyl]oxetan-3-yl}phenyl)-3-oxo-7-(trifluoromethyl)-2,3-dihydro-1H-isoindol-5-yl]methyl}-2,7-diazaspiro[3.5]nonan-7-yl)-2,3-dihydro-1H-isoindole-1,3-dione]
12 | > 0.5 µM | – | Cn1cnnc1CC1(c2cccc(-n3cc4c(C(F)(F)F)cc(CN5CCC[C@H](CN6CCC(CN7CCN(c8ccc9c(c8F)CN(C8CCC(=O)NC8=O)C9=O)CC7)CC6)C5)cc4n3)c2)COC1 (stereo partly drawn) [Example 256, 3-(4-fluoro-5-{4-[(1-{[(3R)-1-{[2-(3-{3-[(4-methyl-4H-1,2,4-triazol-3-yl)methyl]oxetan-3-yl}phenyl)-4-(trifluoromethyl)-2H-indazol-6-yl]methyl}piperidin-3-yl]methyl}piperidin-4-yl)methyl]piperazin-1-yl}-1-oxo-2,3-dihydro-1H-isoindol-2-yl)piperidine-2,6-dione]
13 | > 0.5 µM | – | CC(C)n1c(=O)n(C2CCC(=O)NC2=O)c2cccc(N3CCC(CN4CCN(C[C@H]5CCCN(Cc6cc7c(c(C(F)(F)F)c6)CN(c6cccc(C8(Cc9nncn9C)CC(C#N)C8)c6)C7=O)C5)C(C)(C)C4)CC3)c21 (stereo partly drawn) [Example 288, (1r*,3r*)-3-[3-(6-{[(3S)-3-{[4-({1-[1-(2,6-dioxopiperidin-3-yl)-2-oxo-3-(propan-2-yl)-2,3-dihydro-1H-1,3-benzodiazol-4-yl]piperidin-4-yl}methyl)-2,2-dimethylpiperazin-1-yl]methyl}piperidin-1-yl]methyl}-1-oxo-4-(trifluoromethyl)-2,3-dihydro-1H-isoindol-2-yl)phenyl]-3-[(4-methyl-4H-1,2,4-triazol-3-yl)methyl]cyclobutane-1-carbonitrile]
14 | > 0.5 µM | – | C[C@@H]1c2nc(N3CCC(O[C@H]4CC[C@H](CN5CCN(Cc6cc7c(c(C(F)(F)F)c6)CN(c6cccc(C8(Cc9nncn9C)CC(C#N)C8)c6)C7=O)C(C)(C)C5)CC4)CC3)ccc2C(=O)N1C1CCC(=O)NC1=O (single isomer, unassigned) [Example 308, (1r***,3r***)-3-(3-{6-[(2,2-dimethyl-4-{[(1r**,4r**)-4-({1-[(7R*)-6-(2,6-dioxopiperidin-3-yl)-7-methyl-5-oxo-5H,6H,7H-pyrrolo[3,4-b]pyridin-2-yl]piperidin-4-yl}oxy)cyclohexyl]methyl}piperazin-1-yl)methyl]-1-oxo-4-(trifluoromethyl)-2,3-dihydro-1H-isoindol-2-yl}phenyl)-3-[(4-methyl-4H-1,2,4-triazol-3-yl)methyl]cyclobutane-1-carbonitrile]
